This passage reports Km results from patent US5834286A, “Recombinant cells that express phytate degrading enzymes in desired ratios” (Rohm Enzyme Finland Oy, priority 1995, dated 1998).

The target in series [1] is Aspergillus ficuum phytase (WO 91/05053) (Aspergillus niger, UniProt P34752). Conditions: reported in WO 91/05053; substrate not given; cited from earlier work.
Series [2] deals with T1, Aspergillus ficuum phytase, wild type (Ullah, 1988) (Aspergillus niger, UniProt P34752).
T1 construct: Ullah reportedly purified a phytase from wild-type A. ficuum; host or cells: wild-type A. ficuum (extracellular enzyme)
T1 sequence (P34752 20-467): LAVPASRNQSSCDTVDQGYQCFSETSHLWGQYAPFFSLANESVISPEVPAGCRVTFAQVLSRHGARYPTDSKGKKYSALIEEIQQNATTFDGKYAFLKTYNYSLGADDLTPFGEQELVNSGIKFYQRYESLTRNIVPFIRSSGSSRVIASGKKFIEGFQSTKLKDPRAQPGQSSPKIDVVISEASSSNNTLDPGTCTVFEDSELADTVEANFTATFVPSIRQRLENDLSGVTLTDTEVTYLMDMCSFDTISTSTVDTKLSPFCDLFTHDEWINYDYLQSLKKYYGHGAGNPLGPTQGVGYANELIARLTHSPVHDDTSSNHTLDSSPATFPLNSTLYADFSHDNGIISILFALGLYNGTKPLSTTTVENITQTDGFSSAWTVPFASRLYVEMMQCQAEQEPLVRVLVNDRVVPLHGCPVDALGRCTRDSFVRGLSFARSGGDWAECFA
Conditions: reported by Ullah 1988; substrate not given; cited from earlier work.

Series [3] has as its target T2, Aspergillus niger var. awamori strain ALKO243 (ATCC#38854) pH2.5 acid phosphatase, purified native enzyme, SEQ. ID. NO. 4 (Aspergillus awamori, UniProt P34755).
T2 construct: Peptide #1110T is derived from a trypsin digestion of purified native pH2.5 acid phosphatase; endogenous in cells; host or cells: A. niger var. awamori strain ALKO243 (ATCC#38854), purified in house from the cell-free culture medium
T2 sequence (P34755 20-479): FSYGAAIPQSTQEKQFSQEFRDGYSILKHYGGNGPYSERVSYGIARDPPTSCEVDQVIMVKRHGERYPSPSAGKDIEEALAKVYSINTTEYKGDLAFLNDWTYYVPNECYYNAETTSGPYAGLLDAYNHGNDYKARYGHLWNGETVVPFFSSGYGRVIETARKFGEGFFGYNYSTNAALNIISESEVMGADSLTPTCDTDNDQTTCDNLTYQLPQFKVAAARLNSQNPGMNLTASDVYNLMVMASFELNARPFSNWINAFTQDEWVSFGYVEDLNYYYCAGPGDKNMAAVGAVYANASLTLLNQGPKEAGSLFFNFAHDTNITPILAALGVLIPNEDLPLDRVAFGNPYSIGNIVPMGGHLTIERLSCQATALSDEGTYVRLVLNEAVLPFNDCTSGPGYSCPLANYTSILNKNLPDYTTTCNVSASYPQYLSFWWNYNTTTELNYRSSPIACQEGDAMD
In words: Apparent Km of purified pH2.5 acid phosphatase (phosphate release, molybdate detection). Type of series: biochemical. The note with it: 37° C., read-out: apparent Km for sodium phytate.

Substrate in series [4]: O=P(O)(O)O[C@H]1[C@H](OP(=O)(O)O)[C@@H](OP(=O)(O)O)[C@H](OP(=O)(O)O)[C@@H](OP(=O)(O)O)[C@H]1OP(=O)(O)O
Described as above. It counts as biochemical, Aspergillus niger var. awamori. The note with it: other: 37° C., pH 2.5.

Substrate in series [5]: O=[N+]([O-])c1ccc(OP(=O)(O)O)cc1
The series is described as follows: purified protein, by the assay type. Conditions: other: 37° C., pH2.5, pH 2.5.

Where two headings read alike, the source gives them in different places.

Chain of Aspergillus ficuum phytase (WO 91/05053) (P34752 24-467): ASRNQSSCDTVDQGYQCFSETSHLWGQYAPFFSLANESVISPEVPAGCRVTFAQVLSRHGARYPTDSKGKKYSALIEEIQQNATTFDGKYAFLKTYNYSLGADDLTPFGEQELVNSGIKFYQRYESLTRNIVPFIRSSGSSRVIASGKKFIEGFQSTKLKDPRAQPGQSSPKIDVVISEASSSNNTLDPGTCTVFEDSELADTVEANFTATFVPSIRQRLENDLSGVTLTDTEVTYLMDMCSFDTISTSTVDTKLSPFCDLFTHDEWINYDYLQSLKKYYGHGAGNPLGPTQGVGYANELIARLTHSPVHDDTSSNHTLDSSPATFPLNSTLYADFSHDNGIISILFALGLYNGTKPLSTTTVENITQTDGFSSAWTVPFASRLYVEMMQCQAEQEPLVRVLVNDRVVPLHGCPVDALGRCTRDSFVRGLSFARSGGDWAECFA

For `O=P(O)(O)O[C@H]1[C@H](OP(=O)(O)O)[C@@H](OP(=O)(O)O)[C@H](OP(=O)(O)O)[C@@H](OP(=O)(O)O)[C@H]1OP(=O)(O)O` [phytate, myo-inositol-hexaphosphate], the Km in series [1] was approximately 250 µM; in series [2], approximately 40 µM.
In the case of `O=P(O)(O)O[C@H]1[C@H](OP(=O)(O)O)[C@@H](OP(=O)(O)O)[C@H](OP(=O)(O)O)[C@@H](OP(=O)(O)O)[C@H]1OP(=O)(O)O` [sodium phytate], the Km in series [3] (listed as Na-phytate) and in series [3] was approximately 700 µM each time.

B1: Aspergillus niger var. awamori strain ALKO243 (ATCC#38854) pH2.5 acid phosphatase, purified native enzyme, SEQ. ID. NO. 4 (Aspergillus awamori) (protein)
chain: FSYGAAIPQSTQEKQFSQEFRDGYSILKHYGGNGPYSERVSYGIARDPPTSCEVDQVIMVKRHGERYPSPSAGKDIEEALAKVYSINTTEYKGDLAFLNDWTYYVPNECYYNAETTSGPYAGLLDAYNHGNDYKARYGHLWNGETVVPFFSSGYGRVIETARKFGEGFFGYNYSTNAALNIISESEVMGADSLTPTCDTDNDQTTCDNLTYQLPQFKVAAARLNSQNPGMNLTASDVYNLMVMASFELNARPFSNWINAFTQDEWVSFGYVEDLNYYYCAGPGDKNMAAVGAVYANASLTLLNQGPKEAGSLFFNFAHDTNITPILAALGVLIPNEDLPLDRVAFGNPYSIGNIVPMGGHLTIERLSCQATALSDEGTYVRLVLNEAVLPFNDCTSGPGYSCPLANYTSILNKNLPDYTTTCNVSASYPQYLSFWWNYNTTTELNYRSSPIACQEGDAMD
notes: Peptide #1110T is derived from a trypsin digestion of purified native pH2.5 acid phosphatase; endogenous in cells; host or cells: A. niger var. awamori strain ALKO243 (ATCC#38854), purified in house from the cell-free culture medium
For B1, the Km in series [4] is 0.7 mM; in series [5] it was 4 mM.

For orientation: Km means the concentration of substrate that gives half-maximal velocity.
